Assay type in all cases: cell-based
Holding throughout (conditions): 72 h; human CD4+ T cells under TH17-polarizing conditions, 3 days; supernatant ELISA
(In general: An ELISA detects its analyte on a solid surface through an enzyme-linked reagent.)

The subject of test [1] is IL-17A. Put plainly: Human TH17 cytokine inhibition measured by ELISA: IL-17A. The protocol:
(§1) Human TH17 Cytokine Inhibition as Measured by ELISA
(§2) Peripheral blood mononuclear cells (PBMCs) were sourced from freshly prepared leukocyte enriched plasma (buffy coat) from healthy donors (New York Blood Center). PBMCs were isolated by density gradient centrifugation using Ficoll-Paque™ PLUS (GE Healthcare). Human CD4+ T cells were seeded into 96-well plates (5×10^4 cells/well) and activated with plate-bound anti-human (h)-CD3 antibody and soluble h-aCD28 (both at 1 ug/ml; eBioscience) and differentiated into TH17 cells with 20 ng/mL h-IL-6, 5 ng/mL h-TGF-β1, 10 ng/mL h-IL-23 (eBioscience) and 10 ng/mL IL-1 β (Miltenyi Biotec) in serum-free TexMACS Medium (Miltenyi Biotec) supplemented with 1% Penicillin/Streptomycin (Lonza) for 3 days. CD4+ T cells propagated under TH17-polarizing conditions were cultured in the presence or absence of various concentrations of compounds with a final concentration of 0.1% DMSO. Supernatants were collected and stored at −20° C. until assayed for IL-17A, IL-17F and IL-21 levels by “Ready-Set-Go” ELISA kits (eBioscience) as per manufacturer's instructions. Endpoint absorbance was read at 450 nm using a microplate reader (Perkin Elmer).

Test [2] deals with IL-21. The test can be described thus: Human TH17 cytokine inhibition measured by ELISA: IL-21. The protocol: as §1, §2
For test [3], the system named is IL-17F. The test can be described thus: Human TH17 cytokine inhibition measured by ELISA: IL-17F. The protocol:
as §1, §2

The test system of test [4] is IL-22. Put plainly: Human TH17 cytokine inhibition measured by ELISA: IL-22.

Broadly, the IC50 is the concentration that gives 50% inhibition. A high value points to weaker potency in that assay.

Take `C[C@H]1C[C@H](Cn2ccc3cc(-c4cn[nH]c4)ccc32)CN1S(=O)(=O)c1ccccc1` (racemic) [Example 48, rac.-trans-1-((-5-methyl-1-(phenylsulfonyl)pyrrolidin-3-yl)methyl)-5-(1H-pyrazol-4-yl)-1H-indole]: the half-inhibitory concentration (IC50) in test [1], in test [2] and in test [3] was less than 10 µM throughout.
As to `O=S(=O)(c1ccc(Cl)cc1)N1CCC(Cn2ccc3cc(-c4cn[nH]c4)ccc32)CC1` [Example 36, 1-((1-(4-chlorophenylsulfonyl)piperidin-4-yl)methyl)-5-(1H-pyrazol-4-yl)-1H-indole], the IC50 in test [1], in test [4], in test [2] and in test [3] was less than 10 µM each time.
With `O=S(=O)(Cc1ccccc1)N1CCC(Cn2ccc3cc(-c4cn[nH]c4)ccc32)CC1` [Example 6, 1-((1-(benzylsulfonyl)piperidin-4-yl)methyl)-5-(1H-pyrazol-4-yl)-1H-indole], the 50% inhibitory concentration (IC50) in test [1] was less than 10 µM; in test [2], greater than 10 µM; in test [3] it was less than 10 µM.
As for `O=S(=O)(CCc1ccccc1)N1CCC(Cn2ccc3cc(-c4cn[nH]c4)ccc32)CC1` [Example 7, 1-((1-(phenethylsulfonyl)piperidin-4-yl)methyl)-5-(1H-pyrazol-4-yl)-1H-indole], the half-maximal inhibitory concentration (IC50) in test [1], in test [2] and in test [3] was less than 10 µM in each case.
Turning to `O=S(=O)(c1ccccc1F)N1CCC(Cn2ccc3cc(-c4cn[nH]c4)ccc32)CC1` [Example 40, 1-((1-(2-fluorophenylsulfonyl)piperidin-4-yl)methyl)-5-(1H-pyrazol-4-yl)-1H-indole], the half-inhibitory concentration (IC50) in test [1], in test [4], in test [2] and in test [3] was less than 10 µM in each case.
Take `O=S(=O)(CC(F)(F)F)N1CCC(Cn2ccc3cc(-c4cn[nH]c4)ccc32)CC1` [Example 8, 5-(1H-pyrazol-4-yl)-1-((1-((2,2,2-trifluoroethyl)sulfonyl)piper-idin-4-yl)methyl)-1H-indole]: the 50% inhibitory concentration (IC50) in test [1], in test [2] and in test [3] was greater than 10 µM throughout.
In the case of `CS(=O)(=O)N1CCC(Cn2ccc3cc(-c4cn[nH]c4)ccc32)CC1` [Example 50, 1-((1-(methylsulfonyl)piperidin-4-yl)methyl)-5-(1H-pyrazol-4-yl)-1H-indole], the concentration for half-maximal inhibition (IC50) in test [1], in test [4], in test [2] and in test [3] was greater than 10 µM throughout.
In the case of `C[C@@H]1C[C@H](Cn2ccc3cc(-c4cn[nH]c4)ccc32)CN1S(=O)(=O)c1ccccc1` (racemic) [Example 47, rac.-cis-1-((-5-methyl-1-(phenylsulfonyl)pyrrolidin-3-yl)methyl)-5-(1H-pyrazol-4-yl)-1H-indole], the IC50 in test [1], in test [2] and in test [3] was less than 10 µM in each case.
Turning to `O=S(=O)(c1ccccc1)N1CCC(Cn2ccc3cc(-c4cn[nH]c4)ccc32)CC1` [Example 5, 1-((1-(phenylsulfonyl)piperidin-4-yl)methyl)-5-(1H-pyrazol-4-yl)-1H-indole], the concentration for half-maximal inhibition (IC50) in test [1], in test [2] and in test [3] was less than 10 µM throughout.
As for `CC1(C)CC(Cn2ccc3cc(-c4cn[nH]c4)ccc32)CN1S(=O)(=O)c1ccccc1` (stereo not shown) [Example 29, 1-((5,5-dimethyl-1-(phenylsulfonyl)pyrrolidin-3-yl)methyl)-5-(1H-pyrazol-4-yl)-1H-indole], the IC50 in test [1], in test [2] and in test [3] was less than 10 µM each time.
Consider `O=S(=O)(c1cccnc1)N1CCC(Cn2ccc3cc(-c4cn[nH]c4)ccc32)CC1` [Example 38, 5-(1H-pyrazol-4-yl)-1-((1-(pyridin-3-ylsulfonyl)piperidin-4-yl)methyl)-1H-indole], for which the IC50 in test [1], in test [4], in test [2] and in test [3] was less than 10 µM each time.

Values taken from patent publication US9701663B2, “Sulfonamide retinoic acid receptor-related orphan receptor modulators and uses thereof” (INNOV17 LLC, priority 2014, dated 2017).
